# According to paper doi:10.1101/2024.08.13.607785v1 (biorxiv, 2024):
# Where two headings read alike, the source gives them in different places.
# Columns and labels:
# Test in all cases: biochemical
# Design in all cases: species or system human cell line lysate
# [1] = biological target: Serine/threonine-protein kinase pim-1 ; PIM1 ; P11309 (Homo sapiens, UniProt P11309)
# [2] = biological target: Ribosomal protein S6 kinase alpha-6 ; RPS6KA6 ; Q9UK32 (Homo sapiens, UniProt Q9UK32)
# [3] = biological target: Serine/threonine-protein kinase Chk1 ; CHEK1 ; O14757 (Homo sapiens, UniProt O14757)
# [4] = biological target: Isoform 3 of Mitogen-activated protein kinase 8 ; MAPK8 ; P45983-3 (Homo sapiens, UniProt P45983)
# [5] = biological target: T1, Ephrin type-B receptor 2 ; EPHB2 ; P29323 (Homo sapiens, UniProt P29323)
# T1 sequence (P29323 1-1055): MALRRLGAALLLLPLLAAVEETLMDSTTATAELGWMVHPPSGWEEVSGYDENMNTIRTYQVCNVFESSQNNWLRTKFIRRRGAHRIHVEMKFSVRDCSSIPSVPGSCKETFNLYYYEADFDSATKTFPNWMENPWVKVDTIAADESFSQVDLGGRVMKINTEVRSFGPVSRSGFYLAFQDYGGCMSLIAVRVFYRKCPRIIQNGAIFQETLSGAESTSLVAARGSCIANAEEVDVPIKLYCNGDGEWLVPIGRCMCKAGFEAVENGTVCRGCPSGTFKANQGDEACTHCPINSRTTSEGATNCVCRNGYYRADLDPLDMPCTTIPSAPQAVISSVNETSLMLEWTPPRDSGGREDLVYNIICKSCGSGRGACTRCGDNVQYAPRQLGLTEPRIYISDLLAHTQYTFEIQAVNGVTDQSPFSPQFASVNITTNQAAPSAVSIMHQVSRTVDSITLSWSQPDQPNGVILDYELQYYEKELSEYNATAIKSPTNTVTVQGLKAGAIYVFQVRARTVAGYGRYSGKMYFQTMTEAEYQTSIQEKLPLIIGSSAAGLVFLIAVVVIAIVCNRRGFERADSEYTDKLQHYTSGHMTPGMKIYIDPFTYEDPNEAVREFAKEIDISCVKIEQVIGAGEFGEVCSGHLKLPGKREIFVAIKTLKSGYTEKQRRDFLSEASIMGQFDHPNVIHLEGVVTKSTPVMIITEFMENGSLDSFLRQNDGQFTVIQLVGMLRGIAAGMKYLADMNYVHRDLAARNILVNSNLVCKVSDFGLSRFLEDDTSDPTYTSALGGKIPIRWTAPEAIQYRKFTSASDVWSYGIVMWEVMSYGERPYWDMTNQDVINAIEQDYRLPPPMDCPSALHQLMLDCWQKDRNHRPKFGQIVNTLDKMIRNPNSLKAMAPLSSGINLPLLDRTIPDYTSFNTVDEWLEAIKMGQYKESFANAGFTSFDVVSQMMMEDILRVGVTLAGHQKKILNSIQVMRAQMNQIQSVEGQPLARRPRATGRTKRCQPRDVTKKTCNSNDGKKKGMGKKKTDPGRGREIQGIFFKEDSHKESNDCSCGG
# [6] = biological target: Isoform 2 of 5'-AMP-activated protein kinase catalytic subunit alpha-1 ; PRKAA1 ; Q13131-2 (Homo sapiens, UniProt Q13131)
# [7] = biological target: Serine/threonine-protein kinase 10 ; STK10 ; O94804 (Homo sapiens, UniProt O94804)
# [8] = biological target: Focal adhesion kinase 1 ; PTK2 ; Q05397 (Homo sapiens, UniProt Q05397)
# [9] = biological target: Adenylate kinase isoenzyme 6 ; AK6 ; Q9Y3D8 (Homo sapiens, UniProt Q9Y3D8)
# Chain of Adenylate kinase isoenzyme 6 ; AK6 ; Q9Y3D8 (Q9Y3D8 whole entry, canonical isoform): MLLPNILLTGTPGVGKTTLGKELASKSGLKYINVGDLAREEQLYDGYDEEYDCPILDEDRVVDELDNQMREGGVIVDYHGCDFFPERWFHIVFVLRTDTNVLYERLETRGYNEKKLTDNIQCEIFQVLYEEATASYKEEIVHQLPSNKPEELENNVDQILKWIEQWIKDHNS
# [10] = biological target: Isoform 4 of Serine/threonine-protein kinase PAK 4 ; PAK4 ; O96013-4 (Homo sapiens, UniProt O96013)
# [11] = biological target: Isoform 2 of Focal adhesion kinase 1 ; PTK2 ; Q05397-2 (Homo sapiens, UniProt Q05397)
# [12] = biological target: Isoform 2 of Casein kinase I isoform delta ; CSNK1D ; P48730-2 (Homo sapiens, UniProt P48730)
# Chain of Isoform 2 of Casein kinase I isoform delta ; CSNK1D ; P48730-2 (P48730 whole entry, canonical isoform): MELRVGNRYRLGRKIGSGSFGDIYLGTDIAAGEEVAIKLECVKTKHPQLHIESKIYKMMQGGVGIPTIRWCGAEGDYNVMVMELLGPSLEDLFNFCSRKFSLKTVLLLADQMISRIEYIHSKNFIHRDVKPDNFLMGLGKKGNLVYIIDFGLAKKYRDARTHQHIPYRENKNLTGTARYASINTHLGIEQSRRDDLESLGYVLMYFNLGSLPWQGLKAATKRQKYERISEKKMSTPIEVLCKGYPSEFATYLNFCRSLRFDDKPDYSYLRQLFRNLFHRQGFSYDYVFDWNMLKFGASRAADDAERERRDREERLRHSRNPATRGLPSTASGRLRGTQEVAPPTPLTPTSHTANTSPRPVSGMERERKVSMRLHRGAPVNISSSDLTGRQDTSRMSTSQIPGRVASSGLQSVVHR
# [13] = biological target: Serine/threonine-protein kinase N3 ; PKN3 ; Q6P5Z2 (Homo sapiens, UniProt Q6P5Z2)
# Chain of Serine/threonine-protein kinase N3 ; PKN3 ; Q6P5Z2 (Q6P5Z2 whole entry, one chain of several): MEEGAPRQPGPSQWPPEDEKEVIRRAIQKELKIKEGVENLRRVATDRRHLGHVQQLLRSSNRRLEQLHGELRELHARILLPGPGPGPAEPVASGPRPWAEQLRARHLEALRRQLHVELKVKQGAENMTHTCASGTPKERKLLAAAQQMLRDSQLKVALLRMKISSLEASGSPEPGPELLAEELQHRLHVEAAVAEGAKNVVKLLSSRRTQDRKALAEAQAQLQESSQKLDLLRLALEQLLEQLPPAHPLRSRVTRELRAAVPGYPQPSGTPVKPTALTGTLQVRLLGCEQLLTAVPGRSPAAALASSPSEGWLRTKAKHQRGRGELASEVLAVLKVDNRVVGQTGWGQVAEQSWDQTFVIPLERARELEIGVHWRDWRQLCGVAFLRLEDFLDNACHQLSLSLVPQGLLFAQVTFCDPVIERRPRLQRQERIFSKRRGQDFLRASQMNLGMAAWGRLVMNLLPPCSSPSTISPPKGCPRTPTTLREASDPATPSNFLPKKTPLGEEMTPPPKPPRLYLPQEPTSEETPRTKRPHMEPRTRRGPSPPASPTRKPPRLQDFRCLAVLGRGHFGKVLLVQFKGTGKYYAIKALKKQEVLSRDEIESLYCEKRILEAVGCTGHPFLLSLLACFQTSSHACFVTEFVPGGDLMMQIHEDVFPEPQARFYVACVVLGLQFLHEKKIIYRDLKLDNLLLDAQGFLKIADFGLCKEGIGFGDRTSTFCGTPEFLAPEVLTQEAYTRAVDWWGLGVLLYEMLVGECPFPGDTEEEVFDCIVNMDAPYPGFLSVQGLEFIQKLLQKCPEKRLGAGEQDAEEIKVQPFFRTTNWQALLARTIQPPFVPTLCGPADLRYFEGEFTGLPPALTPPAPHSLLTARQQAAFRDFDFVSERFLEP
# [14] = biological target: Mitogen-activated protein kinase 10 ; MAPK10 ; P53779 (Homo sapiens, UniProt P53779)
# Chain of Mitogen-activated protein kinase 10 ; MAPK10 ; P53779 (P53779 whole entry): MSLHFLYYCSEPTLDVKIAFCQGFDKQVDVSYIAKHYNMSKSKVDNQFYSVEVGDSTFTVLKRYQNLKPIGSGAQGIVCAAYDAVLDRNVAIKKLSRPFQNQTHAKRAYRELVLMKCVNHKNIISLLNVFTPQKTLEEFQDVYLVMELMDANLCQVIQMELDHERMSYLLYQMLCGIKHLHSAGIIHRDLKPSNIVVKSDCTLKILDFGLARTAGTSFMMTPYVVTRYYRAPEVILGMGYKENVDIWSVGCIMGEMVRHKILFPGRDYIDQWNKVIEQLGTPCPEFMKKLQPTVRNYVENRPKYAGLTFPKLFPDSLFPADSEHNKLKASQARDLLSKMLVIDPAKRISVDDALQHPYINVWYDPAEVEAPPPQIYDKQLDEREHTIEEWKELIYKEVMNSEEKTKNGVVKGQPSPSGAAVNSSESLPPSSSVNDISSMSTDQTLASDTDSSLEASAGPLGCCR
# [15] = biological target: Serine/threonine-protein kinase MRCK alpha ; CDC42BPA ; Q5VT25 (Homo sapiens, UniProt Q5VT25)
# Chain of Serine/threonine-protein kinase MRCK alpha ; CDC42BPA ; Q5VT25 (Q5VT25 whole entry, canonical isoform, one chain of several): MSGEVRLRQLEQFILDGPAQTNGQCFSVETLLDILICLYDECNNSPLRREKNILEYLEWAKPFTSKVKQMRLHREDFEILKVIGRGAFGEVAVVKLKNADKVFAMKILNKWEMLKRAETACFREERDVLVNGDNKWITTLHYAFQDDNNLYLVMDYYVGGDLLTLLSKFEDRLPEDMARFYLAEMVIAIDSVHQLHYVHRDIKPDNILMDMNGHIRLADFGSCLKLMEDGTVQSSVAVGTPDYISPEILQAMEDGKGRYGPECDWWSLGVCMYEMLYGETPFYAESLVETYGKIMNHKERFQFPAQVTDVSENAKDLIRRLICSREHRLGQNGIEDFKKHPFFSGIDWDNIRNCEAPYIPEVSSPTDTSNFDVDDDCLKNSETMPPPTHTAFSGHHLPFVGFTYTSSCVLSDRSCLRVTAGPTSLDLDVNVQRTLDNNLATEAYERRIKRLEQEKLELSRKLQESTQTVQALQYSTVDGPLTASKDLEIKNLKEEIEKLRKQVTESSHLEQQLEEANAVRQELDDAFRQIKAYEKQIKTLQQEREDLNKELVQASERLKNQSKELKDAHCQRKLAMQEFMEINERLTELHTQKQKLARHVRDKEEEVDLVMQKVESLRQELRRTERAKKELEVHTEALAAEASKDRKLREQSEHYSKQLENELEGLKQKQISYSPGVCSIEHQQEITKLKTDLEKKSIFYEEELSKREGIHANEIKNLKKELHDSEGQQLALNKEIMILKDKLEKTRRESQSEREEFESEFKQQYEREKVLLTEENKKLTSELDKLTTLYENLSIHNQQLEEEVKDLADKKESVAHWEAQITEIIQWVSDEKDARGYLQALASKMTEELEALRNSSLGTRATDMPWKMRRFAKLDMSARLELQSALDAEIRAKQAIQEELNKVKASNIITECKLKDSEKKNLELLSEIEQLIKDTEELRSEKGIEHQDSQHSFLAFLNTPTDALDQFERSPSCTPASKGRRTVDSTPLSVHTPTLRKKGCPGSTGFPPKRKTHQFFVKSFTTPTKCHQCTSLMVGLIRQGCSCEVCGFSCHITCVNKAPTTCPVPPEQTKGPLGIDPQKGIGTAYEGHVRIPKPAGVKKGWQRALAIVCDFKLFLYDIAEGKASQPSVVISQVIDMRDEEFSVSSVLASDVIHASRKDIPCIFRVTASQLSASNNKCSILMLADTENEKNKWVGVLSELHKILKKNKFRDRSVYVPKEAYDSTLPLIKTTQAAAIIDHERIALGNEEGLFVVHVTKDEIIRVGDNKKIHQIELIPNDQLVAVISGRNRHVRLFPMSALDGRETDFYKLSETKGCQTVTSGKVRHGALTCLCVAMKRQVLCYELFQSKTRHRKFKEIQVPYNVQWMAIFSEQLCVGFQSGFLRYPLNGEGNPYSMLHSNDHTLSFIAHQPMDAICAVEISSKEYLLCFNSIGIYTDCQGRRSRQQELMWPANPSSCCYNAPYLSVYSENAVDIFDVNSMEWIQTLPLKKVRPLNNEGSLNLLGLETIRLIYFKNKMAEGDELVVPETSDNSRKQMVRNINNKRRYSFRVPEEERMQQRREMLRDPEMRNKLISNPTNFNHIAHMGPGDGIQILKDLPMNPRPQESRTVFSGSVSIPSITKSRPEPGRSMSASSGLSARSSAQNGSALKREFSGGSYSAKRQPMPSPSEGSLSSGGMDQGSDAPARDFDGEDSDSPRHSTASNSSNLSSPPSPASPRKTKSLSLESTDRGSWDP
# [16] = biological target: Isoform 2 of Protein-tyrosine kinase 2-beta ; PTK2B ; Q14289-2 (Homo sapiens, UniProt Q14289)
# [17] = read-out: BAY-1143572 (10 µM) / %Intensity relative to DMSO
# [18] = read-out: BAY-1251152 (10 µM) / %Intensity relative to DMSO
# Chain of Ribosomal protein S6 kinase alpha-6 ; RPS6KA6 ; Q9UK32 (Q9UK32 whole entry): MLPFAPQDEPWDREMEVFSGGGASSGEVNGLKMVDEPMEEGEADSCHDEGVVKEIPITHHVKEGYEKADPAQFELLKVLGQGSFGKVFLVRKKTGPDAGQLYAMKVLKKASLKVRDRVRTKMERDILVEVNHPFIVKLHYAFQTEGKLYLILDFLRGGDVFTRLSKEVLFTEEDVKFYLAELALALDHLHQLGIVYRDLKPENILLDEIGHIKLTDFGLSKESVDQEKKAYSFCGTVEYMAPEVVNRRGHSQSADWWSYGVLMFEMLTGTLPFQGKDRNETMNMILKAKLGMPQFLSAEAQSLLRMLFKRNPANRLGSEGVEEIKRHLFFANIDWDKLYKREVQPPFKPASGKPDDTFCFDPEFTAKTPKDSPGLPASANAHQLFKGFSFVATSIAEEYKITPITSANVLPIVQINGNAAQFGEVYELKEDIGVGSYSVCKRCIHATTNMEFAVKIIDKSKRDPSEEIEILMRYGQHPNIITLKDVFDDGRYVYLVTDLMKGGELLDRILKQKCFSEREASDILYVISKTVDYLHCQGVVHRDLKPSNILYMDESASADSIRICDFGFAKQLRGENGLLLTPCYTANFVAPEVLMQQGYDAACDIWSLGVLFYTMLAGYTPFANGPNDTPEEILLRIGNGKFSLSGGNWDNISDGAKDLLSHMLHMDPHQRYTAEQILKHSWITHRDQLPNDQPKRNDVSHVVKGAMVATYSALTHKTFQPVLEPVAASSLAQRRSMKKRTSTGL
# Chain of Serine/threonine-protein kinase pim-1 ; PIM1 ; P11309 (P11309 whole entry, one chain of several): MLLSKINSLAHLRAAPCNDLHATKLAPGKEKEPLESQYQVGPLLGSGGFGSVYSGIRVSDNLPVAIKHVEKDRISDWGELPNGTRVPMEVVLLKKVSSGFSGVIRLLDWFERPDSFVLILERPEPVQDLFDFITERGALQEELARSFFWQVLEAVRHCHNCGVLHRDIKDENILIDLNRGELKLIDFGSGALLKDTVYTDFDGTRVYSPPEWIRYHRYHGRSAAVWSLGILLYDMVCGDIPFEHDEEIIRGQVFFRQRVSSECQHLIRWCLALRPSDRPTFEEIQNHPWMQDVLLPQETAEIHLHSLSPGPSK
structure (smiles),measurement,setting,value
COc1cc(F)ccc1-c1ncnc(Nc2cccc(C[S@](C)(=N)=O)c2)n1 [BAY-1143572],remaining activity at 10 µM,[1]; [17],124%
same,remaining activity at 10 µM,[2]; [17],133%
same,remaining activity at 10 µM,[3]; [17],106%
same,remaining activity at 10 µM,[4]; [17],141%
same,remaining activity at 10 µM,[5]; [17],84.3%
same,remaining activity at 10 µM,[6]; [17],99.5%
same,remaining activity at 10 µM,[7]; [17],91.3%
same,remaining activity at 10 µM,[8]; [17],102%
same,remaining activity at 10 µM,[9]; [17],34.2%
same,remaining activity at 10 µM,[10]; [17],91.5%
same,remaining activity at 10 µM,[11]; [17],80.9%
same,remaining activity at 10 µM,[12]; [17],108%
same,remaining activity at 10 µM,[13]; [17],121%
same,remaining activity at 10 µM,[14]; [17],119%
same,remaining activity at 10 µM,[15]; [17],97.1%
same,remaining activity at 10 µM,[16]; [17],100%
COc1cc(F)ccc1-c1cc(Nc2cc(CS(C)(=N)=O)ccn2)ncc1F (centres unmarked) [BAY-1251152],remaining activity at 10 µM,[1]; [18],110%
same,remaining activity at 10 µM,[2]; [18],118%
same,remaining activity at 10 µM,[3]; [18],110%
same,remaining activity at 10 µM,[4]; [18],128%
same,remaining activity at 10 µM,[5]; [18],105%
same,remaining activity at 10 µM,[6]; [18],103%
same,remaining activity at 10 µM,[7]; [18],74.5%
same,remaining activity at 10 µM,[8]; [18],99.3%
same,remaining activity at 10 µM,[9]; [18],47.6%
same,remaining activity at 10 µM,[10]; [18],95.9%
same,remaining activity at 10 µM,[11]; [18],85%
same,remaining activity at 10 µM,[12]; [18],105%
same,remaining activity at 10 µM,[13]; [18],114%
same,remaining activity at 10 µM,[14]; [18],108%
same,remaining activity at 10 µM,[15]; [18],107%
same,remaining activity at 10 µM,[16]; [18],98.1%
